Measurements: patent publication US20250144067A1, “PERSONALIZED STARVATION THERAPY FOR CANCER” (Faeth Therapeutics, Inc., priority 2021, published 2025)
Where a name gives a salt, the structure may show the parent alone. Read-outs that look alike come from different tables or passages of the source.

Tests used:
[1] = test system: NCI-H292 lung cancer cells; experiment: FDA drug screening, complete media vs cholesterol-free media without statin (TABLE 1); format: cell-based, human
[2] = test system: NCI-H292 lung cancer cells; experiment: FDA drug screening, complete media vs cholesterol-free media with simvastatin (TABLE 2); format: cell-based, human
[3] = NCI-H292 cells, cholesterol-free media without statin, FDA drug library screen
[4] = NCI-H292 cells, complete media, FDA drug library screen
[5] = complete vs cholesterol-free media, >0 enhanced anti-cancer activity, about 0 neutral, <0 antagonist
[6] = NCI-H292 cells, cholesterol-free media with simvastatin 0.04 μM, cell growth value in FDA drug screen
[7] = NCI-H292 cells, complete media, cell growth value in FDA drug screen
[8] = complete media minus cholesterol-free media + simvastatin, >0 enhanced anti-cancer activity, about 0 neutral, <0 antagonist
[9] = Complete minus Cholesterol-free, >0 enhanced anti-cancer activity, about 0 neutral, <0 antagonist
[10] = NCI-H292 cells, drug in cholesterol-free media with simvastatin 0.04 μM
[11] = NCI-H292 cells, drug in complete media
[12] = complete media vs cholesterol-free media + simvastatin (0.04 μM), >0 enhanced anti-cancer activity, about 0 neutral, <0 antagonist
[13] = NCI-H292 cells, FDA drug library screen, cholesterol-free media without statin
[14] = NCI-H292 cells, FDA drug library screen, cholesterol-free media with simvastatin 0.04 μM
[15] = complete media minus cholesterol-free media + simvastatin, […]
[16] = NCI-H292 cells, cholesterol-free media without statin
[17] = NCI-H292 cells, FDA library drug in cholesterol-free media with simvastatin 0.04 μM
[18] = NCI-H292 cells, FDA library drug in complete media
[19] = complete vs cholesterol-free media, greater than 0 enhanced anti-cancer activity, about 0 neutral, below 0 antagonists
[20] = Complete minus Cholesterol-free, greater than 0 enhanced anti-cancer activity, about 0 neutral, below 0 antagonist
[21] = NCI-H292 cells, FDA drug library screen, complete media
[22] = Complete minus Cholesterol-free, greater than 0 enhanced anti-cancer activity, about 0 neutral, below 0 antagonists
[23] = NCI-H292 cells in cholesterol-free media without statin
[24] = NCI-H292 cells in complete media
[25] = complete vs cholesterol-free media, […]
[26] = NCI-H292 cells, cholesterol-free media with simvastatin 0.04 μM, FDA drug library screen (TABLE 2)
[27] = NCI-H292 cells, complete media, FDA drug library screen (TABLE 2)
[28] = complete media minus cholesterol-free media + simvastatin (0.04 μM), >0 enhanced anti-cancer activity, about 0 neutral, <0 antagonist

CN(CCOc1ccc(CC2SC(=O)NC2=O)cc1)c1ccccn1.O=C(O)/C=C\C(=O)O (stereo not drawn) [Rosiglitazone (maleate)]
Cholesterol-free [1, 3]: 1.107 | Complete [1, 4]: 1.422 | Difference [1, 5]: 0.32 | Cholesterol-free media + simvastatin (0.04 μM) [2, 6]: 0.848 | Complete Media [2, 7]: 0.8943 | Difference [2, 8]: 0.05

C[C@@H]1[C@H](O)[C@@H](C)/C=C/C=C/C=C/C=C/C=C/C=C/C=C/[C@H](O[C@@H]2O[C@H](C)[C@@H](O)[C@H](N)[C@@H]2O)C[C@@H]2O[C@](O)(C[C@@H](O)C[C@@H](O)[C@H](O)CC[C@@H](O)C[C@@H](O)CC(=O)O[C@H]1C)C[C@H](O)[C@H]2C(=O)O [Amphotericin B]
Difference [1, 9]: 0.05 | Cholesterol-free [1, 3]: 1.082 | Complete [1, 4]: 1.128 | Cholesterol-free media + simvastatin (0.04 μM) [2, 10]: 1.212 | Complete Media [2, 11]: 0.9521 | Difference [2, 12]: −0.26

Naloxegol (oxalate)
Difference ([1]; Complete minus Cholesterol-free, […]): −0.15 | Cholesterol-free [1, 13]: 1.025 | Cholesterol-free media + simvastatin (0.04 μM) [2, 14]: 0.8544 | Difference [2, 15]: 0.21

O=[N+]([O-])c1cn2c(n1)OC[C@@H](OCc1ccc(OC(F)(F)F)cc1)C2 [Pretomanid]
Difference [1, 9]: −0.21 | Cholesterol-free [1, 16]: 1.474 | Complete ([1]; NCI-H292 cells, complete media): 1.26 | Cholesterol-free media + simvastatin (0.04 μM) [2, 17]: 1.251 | Complete Media [2, 18]: 0.9046 | Difference [2, 12]: −0.35

Nc1ccn(C[C@@H](CO)OCP(=O)(O)O)c(=O)n1 [Cidofovir]
Cholesterol-free [1, 16]: 2.027 | Complete ([1]; NCI-H292 cells, complete media): 1.556 | Difference [1, 19]: −0.47 | Cholesterol-free media + simvastatin (0.04 μM) [2, 6]: 0.9844 | Complete Media [2, 7]: 1.01 | Difference [2, 8]: 0.03

OC[C@@H](O)CN1CCN(c2ccccc2)CC1 [Levodropropizine]
Difference [1, 20]: −0.15 | Cholesterol-free [1, 13]: 0.946 | Complete [1, 21]: 0.7999 | Cholesterol-free media + simvastatin (0.04 μM) [2, 14]: 1.096 | Complete Media [2, 21]: 0.9475 | Difference [2, 12]: −0.15

CC(=O)N[C@@H](CS)C(=O)O [Acetylcysteine]
Difference [1, 22]: −0.64 | Cholesterol-free [1, 23]: 1.369 | Complete [1, 24]: 0.7324 | Cholesterol-free media + simvastatin (0.04 μM) [2, 10]: 1.145 | Complete Media [2, 11]: 0.9059 | Difference [2, 12]: −0.24

CC(=O)O[C@H]1C[C@@H]2CC[C@@H]3[C@H](CC[C@@]4(C)[C@H]3C[C@H]([N+]3(C)CCCCC3)[C@@H]4OC(C)=O)[C@@]2(C)C[C@@H]1N1CCCCC1.[Br-] [Vecuronium (bromide)]
Cholesterol-free [1]: 1.045 | Complete [1]: 0.9438 | Difference [1]: −0.10 | Cholesterol-free media + simvastatin (0.04 μM) [2]: 0.9802 | Complete Media [2]: 0.9534 | Difference [2]: −0.03

CC(C)[N+]1(C)[C@@H]2CC[C@H]1CC(OC(=O)C(CO)c1ccccc1)C2.[Br-] (stereo partly drawn) [Ipratropium (bromide)]
Cholesterol-free [1, 16]: 1.233 | Complete ([1]; NCI-H292 cells, complete media): 0.8969 | Difference [1, 25]: −0.34 | Cholesterol-free media + simvastatin (0.04 μM) [2, 17]: 1.536 | Difference ([2]; complete media vs cholesterol-free media + simvastatin (0.04 μM), […]): −0.39

Niraparib (tosylate)
Cholesterol-free [1]: 1.671 | Difference [1]: −0.63 | Cholesterol-free media + simvastatin (0.04 μM) [2]: 1.448 | Complete Media [2]: 1.091 | Difference [2]: −0.36

COc1cc(C(C)=O)ccc1OCCCN1CCC(c2noc3cc(F)ccc23)CC1 [Iloperidone]
Difference [1, 9]: −0.06 | Complete [1, 4]: 0.8863 | Cholesterol-free media + simvastatin (0.04 μM) [2, 14]: 0.9523 | Complete Media [2, 21]: 1.134 | Difference [2, 8]: 0.18

CO[C@]12C[C@@H](COC(=O)c3cncc(Br)c3)CN(C)[C@@H]1Cc1cn(C)c3cccc2c13 [Nicergoline]
Cholesterol-free [1, 3]: 0.9355 | Complete [1, 4]: 1.445 | Difference [1, 5]: 0.51 | Cholesterol-free media + simvastatin (0.04 μM) [2, 17]: 1.053 | Complete Media [2, 18]: 0.4708 | Difference [2, 12]: −0.58

CCOc1ccc(NC(C)=O)cc1 [Phenacetin]
Difference [1, 20]: −0.09 | Cholesterol-free [1, 13]: 0.9552 | Complete [1, 21]: 0.8688 | Cholesterol-free media + simvastatin (0.04 μM) [2, 14]: 1.132 | Complete Media [2, 21]: 1.048 | Difference [2, 12]: −0.08

C[C@@H](NCCCc1cccc(C(F)(F)F)c1)c1cccc2ccccc12 [Cinacalcet (hydrochloride)]
Cholesterol-free [1, 16]: 1.099 | Complete ([1]; NCI-H292 cells, complete media): 0.7862 | Difference [1, 19]: −0.31 | Cholesterol-free media + simvastatin (0.04 μM) [2, 6]: 0.9304 | Complete Media [2, 7]: 0.9877 | Difference [2, 8]: 0.06

CO/N=C(\C(=O)N[C@@H]1C(=O)N2C(C(=O)[O-])=C(CSc3nc(C)c(CC(=O)[O-])s3)CS[C@H]12)c1csc(N)n1.[Na+].[Na+] [Cefodizime (sodium)]
Difference [1, 9]: 0.06 | Cholesterol-free [1, 3]: 1.009 | Complete [1, 4]: 1.069 | Cholesterol-free media + simvastatin (0.04 μM) [2, 10]: 1.29 | Complete Media [2, 11]: 1.088 | Difference [2, 12]: −0.20

CN(C/C=C/c1ccccc1)Cc1cccc2ccccc12 [Naftifine (hydrochloride)]
Difference [1, 22]: −0.88 | Cholesterol-free [1, 23]: 1.921 | Complete [1, 24]: 1.037 | Cholesterol-free media + simvastatin (0.04 μM) [2, 14]: 0.9055 | Complete Media [2, 21]: 1.136 | Difference [2, 8]: 0.23

Dexchlorpheniramine (maleate)
Difference [1, 9]: −0.05 | Cholesterol-free media + simvastatin (0.04 μM) [2, 26]: 0.9393 | Complete Media [2, 27]: 0.9459 | Difference [2, 28]: 0.01

COc1cccc(-c2c(C)n(Cc3c(F)cccc3C(F)(F)F)c(=O)n(C[C@H](NCCCC(=O)O)c3ccccc3)c2=O)c1F [(R)-Elagolix]
Difference [1, 22]: −0.49 | Cholesterol-free [1, 23]: 1.394 | Complete [1, 24]: 0.8996 | Cholesterol-free media + simvastatin (0.04 μM) [2, 14]: 1.16 | Complete Media [2, 21]: 1.077 | Difference [2, 12]: −0.08

O=C1C(O)=C([C@H]2CC[C@H](c3ccc(Cl)cc3)CC2)C(=O)c2ccccc21 [Atovaquone]
Cholesterol-free [1, 3]: 0.9543 | Complete [1, 4]: 1.102 | Difference [1, 5]: 0.15 | Cholesterol-free media + simvastatin (0.04 μM) [2, 14]: 1.327 | Complete Media [2, 21]: 1.493 | Difference [2, 8]: 0.17

c1cc(CN2CCCNCCNCCCNCC2)ccc1CN1CCCNCCNCCCNCC1 [Plerixafor (octahydrochloride)]
Difference [1, 20]: −0.08 | Cholesterol-free [1, 13]: 1.221 | Complete [1, 21]: 1.137 | Cholesterol-free media + simvastatin (0.04 μM) [2, 17]: 1.159 | Complete Media [2, 18]: 0.812 | Difference [2, 12]: −0.35

NC(=O)NC1NC(=O)NC1=O (stereo not drawn) [Allantoin]
Difference [1, 20]: −0.09 | Cholesterol-free [1, 13]: 0.5704 | Complete [1, 21]: 0.4823 | Cholesterol-free media + simvastatin (0.04 μM) [2, 17]: 1.146 | Complete Media [2, 18]: 0.6387 | Difference [2, 12]: −0.51

C[C@H](C(=O)O)c1cccc(C(=O)c2ccccc2)c1 [S-(+)-Ketoprofen]
Cholesterol-free [1, 16]: 1.312 | Complete ([1]; NCI-H292 cells, complete media): 0.984 | Difference [1, 19]: −0.33 | Cholesterol-free media + simvastatin (0.04 μM) [2, 10]: 0.9554 | Complete Media [2, 11]: 0.7437 | Difference [2, 12]: −0.21

CO/N=C(\C(=O)N[C@@H]1C(=O)N2C(C(=O)O)=C(COC(C)=O)CS[C@H]12)c1csc(N)n1 [Cefotaxime (sodium salt)]
Cholesterol-free [1, 16]: 1.268 | Complete ([1]; NCI-H292 cells, complete media): 0.9622 | Difference [1, 19]: −0.31 | Cholesterol-free media + simvastatin (0.04 μM) [2, 14]: 1.284 | Complete Media [2, 21]: 1.139 | Difference [2, 12]: −0.15

CN1CCCN=C1/C=C/c1cccs1.O=C(O)c1cc2ccccc2c(Cc2c(O)c(C(=O)O)cc3ccccc23)c1O [Pyrantel (pamoate)]
Cholesterol-free [1, 3]: 1.079 | Complete [1, 4]: 1.203 | Difference [1, 5]: 0.12 | Cholesterol-free media + simvastatin (0.04 μM) [2, 17]: 1.254 | Complete Media [2, 18]: 0.856 | Difference [2, 12]: −0.40

CN1CCc2c(c3ccccc3n2Cc2ccccc2)C1 [Mebhydrolin]
Difference [1, 9]: −0.31 | Cholesterol-free [1, 16]: 1.813 | Complete ([1]; NCI-H292 cells, complete media): 1.508 | Cholesterol-free media + simvastatin (0.04 μM) [2, 14]: 0.7768 | Complete Media [2, 21]: 0.6781 | Difference [2, 12]: −0.10

CC1(C)[C@@H](OC(=O)CCC(=O)O)CC[C@]2(C)[C@H]3C(=O)C=C4[C@@H]5C[C@@](C)(C(=O)O)CC[C@]5(C)CC[C@@]4(C)[C@]3(C)CC[C@@H]12 [Carbenoxolone (disodium)]
Difference [1, 9]: −0.05 | Cholesterol-free [1, 3]: 1.149 | Complete [1, 4]: 1.095 | Cholesterol-free media + simvastatin (0.04 μM) [2, 26]: 0.9745 | Complete Media [2, 27]: 0.9823 | Difference [2, 28]: 0.01

Maraviroc
Cholesterol-free [1, 3]: 0.6337 | Complete [1, 4]: 0.8933 | Difference [1, 25]: 0.26 | Difference [2, 15]: 0.03

OC[C@H]1O[C@@](CO)(O[C@H]2O[C@H](CO)[C@@H](O)[C@H](O)[C@H]2O)[C@@H](O)[C@@H]1O [Sucrose]
Difference [1, 22]: −0.74 | Cholesterol-free [1, 23]: 1.582 | Complete [1, 24]: 0.843 | Cholesterol-free media + simvastatin (0.04 μM) [2, 17]: 1.867 | Complete Media [2, 18]: 0.9772 | Difference [2, 12]: −0.89
